The test system of one data set is Panc-1 cells. Kind of data set: Cell growth inhibition of Panc-1 by MTT assay, ABT-263 with 483. Format: cell-based. The source says:
FIG. 7: 483 synergizes with ABT-263 to kill Panc-1 cells.
As expected, ABT-263 had little effect on this cell line (FIG. 7).

The next data set concerns Mcl-1 knockout MEFs. Format: cell-based. Conditions: 15 h. The protocol:
Cell viability was assessed using propidium iodide staining detected with flow cytometry. […] The percentage of dead cells was calculated using LIVE/DEAD fixable violet dead cell stain (VIVID) and detected with flow cytometry.

For data set [1], the target named is T1, Mcl-1 (Homo sapiens, UniProt Q07820). The note with it: cited from earlier work.
Target sequence in this assay (Q07820 whole entry, species assumed): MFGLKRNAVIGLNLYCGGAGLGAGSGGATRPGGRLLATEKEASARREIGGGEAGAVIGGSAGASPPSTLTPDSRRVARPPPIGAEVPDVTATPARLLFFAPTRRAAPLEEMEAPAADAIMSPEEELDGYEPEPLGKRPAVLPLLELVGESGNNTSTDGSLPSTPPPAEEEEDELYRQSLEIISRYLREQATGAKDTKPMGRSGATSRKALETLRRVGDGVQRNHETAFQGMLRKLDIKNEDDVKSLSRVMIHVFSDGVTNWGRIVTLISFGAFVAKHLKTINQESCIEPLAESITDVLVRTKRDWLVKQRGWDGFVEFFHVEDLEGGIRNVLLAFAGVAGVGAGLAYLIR
Data set [2] concerns the target T1, Mcl-1. Kind of data set: HSQC NMR spectroscopy of binding to Mcl-1 protein. The note with it: compound in complex with Mcl-1. The source says:
[drawing 85] with 5,6-difuran-2-yl-1,2,4-triazine core identified with high throughput screening (see, e.g., Du, Y., et al., Assay and drug development technologies 9, 382-393). […] The second furan ring has weak hydrophobic interaction with residues Phe 318 and Phe 319, which are located proximal to the conserved h4 pocket (FIG. 1). These two residues were identified that contribute to additional hydrophobic contacts with the staple of a reported stabilized α-helix (see, e.g., Stewart, M. L., et al., Nat Chem Biol 6, 595-601).
[drawing 86] was de-novo designed (FIG. 1). In the 368, one furan ring was replaced with carboxylate moiety in order to improve the conserved hydrogen bond, the other furan ring was replaced with phenylsulfonamido and the side chain was changed to phenethylthio substituent in order to allow further modification for improving hydrophobic interactions.
Target sequence in this assay (Q07820 whole entry): as the sequence (Q07820 whole entry, species assumed) above

The target of data set [3] is T1, Mcl-1. Kind of data set: FP based binding assay to Mcl-1 (Bid BH3 peptide probe).
Target sequence in this assay (Q07820 whole entry): as the sequence (Q07820 whole entry, species assumed) above
The target in the next data set is T2, endogenous Mcl-1 protein (Homo sapiens, UniProt Q07820).
T2 construct: endogenous in cells; host or cells: 2LMP human breast cancer cells (whole cell lysate)
Nature of the data set: Pull-down assay using biotin-labeled Noxa and 2LMP whole cell lysate. Format: binding. Conditions: Western blot with anti-Mcl-1 antibody. The protocol: FIG. 3: Mcl-1 inhibitors recognize and bind endogenous Mcl-1 protein. Biotin-labeled Noxa (BL-Noxa, […]) was incubated with whole cell lysates of 2LMP cells with or without tested Mcl-1 inhibitors and Bim BH3 peptide as a positive control, followed by incubation with precleared streptavidin agarose beads. Eluted beads were subjected to Western blot analysis with anti-Mcl-1 antibody.

In data set [4] the target is T3, Bcl-xL (Homo sapiens, UniProt Q07817). Nature of the data set: Binding selectivity, Bcl-xL.
The test system of the next data set is wild-type MEFs. Nature of the data set: Cell viability in wild-type MEFs. The note with it: 15 h, propidium iodide staining, flow cytometry. Format: cell-based, mouse. The procedure: (§1) FIG. 5A-B: A) 483 induces Bax/Bak and Mcl-1 dependent cell death. Mouse Embryonic Fibroblasts (MEFs) were treated for 15 h with 483 and ABT263. Cell viability was assessed using propidium iodide staining detected with flow cytometry. […] Cells were treated for 15 h with increasing concentrations of (A) 483 and (B) ABT263. […] The percentage of dead cells was calculated using LIVE/DEAD fixable violet dead cell stain (VIVID) and detected with flow cytometry. (*) is p<0.001.
(§2) Wild-type, Bax/Bak double knockout and Mcl-1 knockout MEFs cells have been employed as models to establish the mechanism-based apoptosis and on-target activity (see, e.g., Lindsten, T., and Thompson, C. B. (2006) Cell death and differentiation 13, 1272-1276). […] The specificity of this class Mcl-1 inhibitors was further confirmed by using cell lines developed by retroviral transduction of lymphoma cells isolated from Eg-myc transgenic mice which survival depends on the expression of individual prosurvival protein.

The test system of data set [5] is Eμ-myc lymphoma cells overexpressing Mcl-1. Nature of the data set: Cell death in Eμ-myc lymphoma cells overexpressing Mcl-1. Format: cell-based, mouse. The note with it: Eμ-myc lymphoma overexpressing Mcl-1, 15 h, VIVID stain, flow cytometry. The protocol: as §1, §2
The subject of data set [6] is Bax/Bak double knockout MEFs. Kind of data set: Cell viability in Bax/Bak double knockout MEFs. Format: cell-based. Conditions: 15 h. The procedure:
as §1, §2

Data set [7] concerns Eμ-myc lymphoma cells overexpressing Bcl-2. Nature of the data set: Cell death in Eμ-myc lymphoma cells overexpressing Bcl-2. Format: cell-based, mouse. Conditions: Eμ-myc lymphoma overexpressing Bcl-2, 15 h. The protocol: as §1, §2
Another data set deals with Bcl-2 (Homo sapiens, UniProt P10415). Kind of data set: Binding selectivity, Bcl-2.
In data set [8] the target is T3, Bcl-xL. Kind of data set: Cell-free functional assay with purified mitochondria, Smac release, Bcl-xL. Format: biochemical. Conditions: concentrations as high as 9 μM. The source says: To provide direct evidence that 483 and 487 also selectively antagonize Mcl-1 function, a cell-free functional assay was established using purified mitochondria, recombinant Mcl-1 and Bcl-xL proteins, and the BIM BH3 peptide which binds to both proteins with high affinities.

Another data set concerns the target T4, Bcl-w (Homo sapiens, UniProt Q92843).
T4 sequence (Q92843 1-193): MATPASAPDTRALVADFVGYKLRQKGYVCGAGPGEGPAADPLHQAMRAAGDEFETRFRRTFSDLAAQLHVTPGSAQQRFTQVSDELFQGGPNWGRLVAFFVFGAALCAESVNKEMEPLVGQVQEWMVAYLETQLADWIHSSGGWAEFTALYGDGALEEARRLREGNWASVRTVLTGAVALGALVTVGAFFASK
Kind of data set: Binding selectivity, Bcl-w.

For data set [9], the target named is T5, Mcl-1/BAK protein-protein interactions (Homo sapiens, UniProt Q07820).
T5 construct: endogenous in cells; host or cells: Panc-1 cells
Kind of data set: Co-immunoprecipitation of Mcl-1 protein in Panc-1 cells. Format: cell-based. The note with it: different concentrations, Mcl-1 immunoprecipitation and Western blot. The source says:
FIG. 8: 483LM disrupts the Mcl-1/BAK protein-protein interactions in Panc-1 cell line.
For orientation: In western blotting, separated proteins are transferred to a membrane and probed.

Where [10] appears, read: FP assay using Bid BH3 peptide as a probe.
Where [11] appears, read: Binding affinity of Mcl-1 inhibitors using FP based assay, Table 1.

Entries after “also recorded” stand apart in the source; their conditions may differ.

The Ki is a dissociation constant, usually derived from enzyme kinetics or from competition with a known ligand. Low values mean tighter binding, high ones weaker binding.

T3 sequence (Q07817 whole entry, species assumed): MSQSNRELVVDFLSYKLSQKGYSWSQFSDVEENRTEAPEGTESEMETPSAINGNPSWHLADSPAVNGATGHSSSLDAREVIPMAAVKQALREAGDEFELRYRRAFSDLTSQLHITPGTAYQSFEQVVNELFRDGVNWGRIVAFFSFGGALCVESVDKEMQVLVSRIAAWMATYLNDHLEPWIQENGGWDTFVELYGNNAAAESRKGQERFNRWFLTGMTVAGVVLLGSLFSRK
T5 sequence (Q07820 whole entry): as the sequence (Q07820 whole entry, species assumed) above
T2 sequence (Q07820 whole entry): as the sequence (Q07820 whole entry, species assumed) above
Sequence of Bcl-2 (P10415 whole entry, species assumed): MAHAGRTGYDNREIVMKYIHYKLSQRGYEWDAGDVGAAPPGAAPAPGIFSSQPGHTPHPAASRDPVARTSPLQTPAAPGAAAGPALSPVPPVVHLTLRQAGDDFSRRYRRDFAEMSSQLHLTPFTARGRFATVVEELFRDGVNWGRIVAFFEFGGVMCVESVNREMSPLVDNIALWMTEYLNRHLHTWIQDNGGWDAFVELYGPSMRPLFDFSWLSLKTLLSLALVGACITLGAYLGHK

Take `CC1(C)CCC(c2ccc(Cl)cc2)=C(CN2CCN(c3ccc(C(=O)NS(=O)(=O)c4ccc(N[C@H](CCN5CCOCC5)CSc5ccccc5)c(S(=O)(=O)C(F)(F)F)c4)cc3)CC2)C1` [ABT-263, reference compound]: in the data set on Panc-1 cells (Panc-1, 48 h), the “effect on cell line, single agent” value was “little effect”. In addition, in the data set with Mcl-1 knockout MEFs, the “cytotoxicity / growth-inhibitory activity” value is reported as “increased growth-inhibitory activity”.
For `CN(C)CC[C@H](CSc1ccccc1)Nc1ccc(S(=O)(=O)NC(=O)c2ccc(N3CCN(Cc4ccccc4-c4ccc(Cl)cc4)CC3)cc2)cc1[N+](=O)[O-]` [ABT-737], on Mcl-1 [1], the “binding to Mcl-1” value is recorded as “fails to bind”.
In the case of `O=C(O)c1cc(SCCc2ccccc2)ccc1NS(=O)(=O)c1ccccc1` [Compound 368, 5-(Phenethylthio)-2-(phenylsulfonamido)benzoic acid], the “chemical shift perturbations in HSQC NMR spectrum” value on Mcl-1 [2] is recorded as “large chemical shift perturbations”. Affinity on Mcl-1 [3] (setting [10]) was put at a Ki of 490 ± 10 nM.
Regarding `CC(C)c1cc(NS(=O)(=O)c2ccc(Oc3ccccc3)cc2)c(C(=O)O)cc1SCCc1ccccc1` [Compound 476, 4-isopropyl-5-(phenethylthio)-2-(4-phenoxyphenylsulfonamido)benzoic acid], affinity at Mcl-1 [3] (setting [11]) was put at a Ki of 35 ± 13 nM.
Consider `CC(C)c1cc(NS(=O)(=O)c2ccc(Oc3ccccc3)cc2)c(C(=O)O)cc1-c1ccc(COc2cccc(C(F)(F)F)c2)cc1` [Compound 477, 6-isopropyl-4-(4-phenoxyphenylsulfonamido)-4′-((3-(trifluoromethyl)phenoxy)methyl)-[1,1′-biphenyl]-3-carboxylic acid], for which affinity on Mcl-1 [3] (setting [11]) was put at a Ki of 13 ± 3 nM.
Take `CC(C)c1cc(NS(=O)(=O)c2ccc3ccccc3c2)c(C(=O)O)cc1SCCc1ccccc1` [Compound 478, 4-isopropyl-2-(naphthalene-2-sulfonamido)-5-(phenethylthio)benzoic acid]: at Mcl-1 [3] (setting [11]), the Ki is 70 ± 21 nM. In addition, the “improvement in comparison with 382” value at Mcl-1 [3] (relative to 382) was 2.5 fold.
At Mcl-1 [3] (setting [11]), `Cc1cccc(-c2cc(NS(=O)(=O)N3CCN(c4ccc(C(C)(C)C)cc4)CC3)c(C(=O)O)cc2SCCC(=O)Nc2ccccc2)c1` [Compound 479] came in with an inhibitory constant (Ki) of 66 ± 27 nM.
`CC(C)c1cc(NS(=O)(=O)c2ccc(Oc3ccc(F)cc3)cc2)c(C(=O)O)cc1-c1ccc(COc2cccc(C(F)(F)F)c2)cc1` [Compound 480, 4-(4-(4-fluorophenoxy)phenylsulfonamido)-6-isopropyl-4′-((3-(trifluoromethyl)phenoxy)methyl)-[1,1′-biphenyl]-3-carboxylic acid]: at Mcl-1 [3] (setting [11]), the Ki came to 10 ± 3 nM.
On Mcl-1 [3] (setting [11]), `COC(=O)c1cc(-c2ccc(COc3cccc(C(F)(F)F)c3)cc2)c(C(C)C)cc1NS(=O)(=O)c1ccc(Oc2ccc(F)cc2)cc1` [Compound 481, methyl 4-(4-(4-fluorophenoxy)phenylsulfonamido)-6-isopropyl-4′-((3-(trifluoromethyl)phenoxy)methyl)-[1,1′-biphenyl]-3-carboxylate] came in with a Ki above 2000 nM.
The same measure, in the same setting: the same measure for `COC(=O)c1cc(-c2ccc(COc3cccc(C(F)(F)F)c3)cc2)c(C(C)C)cc1NS(=O)(=O)c1ccc2ccccc2c1` [Compound 482, methyl 6-isopropyl-4-(naphthalene-2-sulfonamido)-4′-((3-(trifluoromethyl)phenoxy)methyl)-[1,1′-biphenyl]-3-carboxylate]: above 2000 nM.
`CC(C)c1cc(NC(=O)c2ccc(Oc3ccccc3)cc2)c(C(=O)O)cc1-c1ccc(COc2cccc(C(F)(F)F)c2)cc1` [Compound 483, 6-isopropyl-4-(4-phenoxybenzamido)-4′-((3-(trifluoromethyl)phenoxy)methyl)-[1,1′-biphenyl]-3-carboxylic acid]: the “blocking of the binding of BL-Noxa to Mcl-1” value at endogenous Mcl-1 protein was “dose-dependent blocked”. Further, the Ki was above 1000 nM at Bcl-xL [4], 7 ± 2 nM on Mcl-1 [3] (binding affinity to Mcl-1), above 1000 nM on Bcl-2 and above 1000 nM at Bcl-w. For the same molecule, in the data set on wild-type MEFs, the cell death result is listed as “causes cell death”. Further, the “cell death / sensitization” value in data set [5] is listed as “led to sensitization; also recorded: selectively induces cell death”. In [6], the cytotoxicity entry was “didn't show cytotoxicity”. The effect on cells result in data set [7] is “did not show effect”. Besides, the “combination effect with ABT-263” value with Panc-1 cells (Panc-1, 48 h) is “synergizes; also recorded: substantially shifted the dose-response curve”. In addition, the “improvement of IC50 of cell growth inhibition of ABT-263” value in the data set on Panc-1 cells (Panc-1, ABT-263 in the presence of 483, 48 h) is given as “more than 660 fold”. Also, the “release of Smac in the Bcl-xL functional assay” value at Bcl-xL [8] is “fail to release Smac”. Also, the “disruption of Mcl-1/Bak protein-protein interactions” value in data set [9] is given as “dose-dependent disruption”; in data set [9] (listed as 483LM) it was “disrupts”. The “cytotoxicity / growth-inhibitory activity” value with Mcl-1 knockout MEFs is on record as “didn't show cytotoxicity”.
At Mcl-1 [3] (setting [11]), `CC(C)(C)c1ccc(N2CCN(C(=O)CCc3cccc(-c4ccc(C(=O)O)c(NS(=O)(=O)N5CCN(c6ccc(C(C)(C)C)cc6)CC5)c4)c3)CC2)cc1` [Compound 484] registered a Ki of 42 ± 17 nM.
On the same count and under the same terms, the same measure for `Cc1cccc(-c2cc(NS(=O)(=O)c3ccccc3)c(C(=O)O)cc2SCCC(=O)Nc2ccccc2)c1` [Compound 485]: 437 ± 67 nM; for `COC(=O)c1cc(-c2ccc(COc3cccc(C(F)(F)F)c3)cc2)c(C(C)C)cc1NC(=O)c1ccc(Oc2ccccc2)cc1` [Compound 486, methyl 6-isopropyl-4-(4-phenoxybenzamido)-4′-((3-(trifluoromethyl)phenoxy)methyl)-[1,1′-biphenyl]-3-carboxylate]: above 2000 nM.
As for `CC(C)c1cc(NC(=O)c2ccc(Oc3ccc(F)cc3)cc2)c(C(=O)O)cc1-c1ccc(COc2cccc(C(F)(F)F)c2)cc1` [Compound 487, 4-(4-(4-fluorophenoxy)benzamido)-6-isopropyl-4′-((3-(trifluoromethyl)phenoxy)methyl)-[1,1′-biphenyl]-3-carboxylic acid], the inhibition constant Ki at Mcl-1 [3] (setting [11]) worked out at 8 ± 2 nM. Moreover, on Bcl-xL [8], the “release of Smac in the Bcl-xL functional assay” value is recorded as “fail to release Smac”.
With `O=C(O)c1ccc(SCCc2ccccc2)cc1NS(=O)(=O)c1ccccc1` [Compound 702, 4-(Phenethylthio)-2-(phenylsulfonamido)benzoic acid], on Mcl-1 [3] (setting [11]), the affinity corresponds to a Ki of 2360 ± 116 nM.
`O=C(CSc1nnc(-c2ccco2)c(-c2ccco2)n1)Nc1ccccc1` [Compound E238, reference compound]: the “chemical shift perturbations in HSQC NMR spectrum” value at Mcl-1 [2] was “concentration-dependent perturbations”. Further, the affinity at Mcl-1 [3] (setting [10]) corresponds to a Ki of 2090 ± 180 nM.

The values above are taken from US9884841B2, “Small molecule inhibitors of Mcl-1 and uses thereof” (The Regents of the University of Michigan, priority 2015, dated 2018).
